# Reference: patent publication US20140066365A1, “USE OF CALIXARENES ASSOCIATED WITH AN ANTIBIOTIC IN THE TREATMENT OF BACTERIAL INFECTIONS” (priority 2011, published 2014)
# Where “and” joins values, the source holds several entries; their conditions need not be identical. Equal entries are not always repeated. Where two headings read alike, the source gives them in different places.
# How the values were obtained:
# [1] = test system: MRSA strain without associated resistance (SaR1); test: MIC of the compounds used alone, microdilution in a liquid medium (CLSI); assay type: cell-based, Staphylococcus aureus; conditions: SaR1
# Excerpt: (§1) The MICs of the antibiotics were previously defined for each strain, by the method of microdilution in a liquid medium (CLSI (Clinical and Laboratory Standards Institute), 2003).
# [2] = test system: MRSA strain having a resistance to the aminoglycosides, fluoroquinolones, macrolides-lincosamides-synergistins and ofloxacin (SaR4); test: as above; assay type: cell-based, Staphylococcus aureus; conditions: SaR4
# Excerpt: as §1
# [3] = test system: MRSA strain having a resistance to the aminoglycosides and fluoroquinolones (SaR3); test: as above; assay type: cell-based, Staphylococcus aureus; conditions: SaR3
# Excerpt: as §1
# [4] = test system: Pseudomonas aeruginosa strain PaR2; test: microbe, parasite or virus in culture; assay type: cell-based
# Excerpt: as §1
# [5] = test system: cephalosporinase-hyperproducing strain of Escherichia coli (EcR2); test: MIC of the compounds used alone, microdilution in a liquid medium (CLSI); assay type: cell-based; conditions: Cx1 alone (first value of cell)
# Excerpt: as §1
# [6] = test system: Pseudomonas aeruginosa strain PaR3; test: as above; assay type: cell-based
# Excerpt: as §1
# [7] = test system: Escherichia coli strain ATCC 25922 (wild type); test: as above; assay type: cell-based; conditions: E. coli ATCC 25922
# Excerpt: as §1
# [8] = test system: mucoid strain of Pseudomonas aeruginosa PaR5; test: as above; assay type: cell-based
# Excerpt: as §1
# [9] = test system: Staphylococcus aureus strain ATCC 29213 (wild type); test: as above; assay type: cell-based; conditions: S. aureus ATCC 29213
# Excerpt: as §1
# [10] = test system: Pseudomonas aeruginosa strain ATCC 27853 (wild type); test: as above; assay type: cell-based; conditions: P. aeruginosa ATCC 27853
# Excerpt: as §1
# [11] = test system: penicillinase-producing strain of Escherichia coli without associated resistance (EcR1); test: as above; assay type: cell-based; conditions: Cx1 alone (first value of cell)
# Excerpt: as §1
# [12] = test system: ESBL-producing strain of Escherichia coli, having an associated resistance to the aminoglycosides (EcR3); test: as above; assay type: cell-based; conditions: Cx1 alone (first value of cell)
# Excerpt: as §1
# [13] = test system: SaR1: Meticillin-Resistant Staphylococcus aureus without Associated Resistance; test: Antibiogram, MIC by the VITEK 2 system; assay type: cell-based; conditions: SaR1; for CA-SFM Interpretation: Cc CA-SFM 2011; for EUCAST Interpretation: Cc EUCAST 2011; for Results: from MIC
# Description: (§2) The bacterial and antibiogramidentification is carried out by the VITEK 2 system (bioMérieux)
# [14] = test system: SaR3: Meticillin-Resistant Staphylococcus aureus; test: Antibiogram by the disk diffusion technique; assay type: cell-based; conditions: for CA-SFM Interpretation: Cd CA-SFM 2011; for Diameter: Table E1; for Results: Table E1, against Dmin Dmax; for diameter in mm: Table E2
# Description: (§3) The bacterial and antibiogramidentification is carried out by the VITEK 2 system (bioMérieux) and by the disk diffusion technique
# [15] = test system: SaR4: Meticillin-Resistant Staphylococcus aureus; test: Antibiogram, MIC by the VITEK 2 system; assay type: cell-based; conditions: SaR4; for CA-SFM Interpretation: Cc CA-SFM 2011; for EUCAST Interpretation: Cc EUCAST 2011; for MIC: Staphylococcus aureus, read-out: MIC
# Description: as §3
# [16] = test system: SaR1: Meticillin-Resistant Staphylococcus aureus without Associated Resistance; test: Antibiogram, inhibition diameter (Table D1); assay type: cell-based; conditions: for Results: from diameter, against Dmin Dmax
# Description: as §2
# [17] = test system: PaR2: Pseudomonas aeruginosa; assay type: cell-based
# Description: as §3
# [18] = MIC of the compounds used alone, microdilution in a liquid medium (CLSI); assay type: cell-based, Staphylococcus aureus; conditions: Staphylococcus aureus, MRSA; antibiotic alone (second value of cell); SaR4; read-out: MIC
# Excerpt: as §1
# [19] = test system: EcR1: Penicillinase-Producing Escherichia coli without Associated Resistance; test: Antibiogram by the disk diffusion technique; assay type: cell-based
# Description: 5.1 EcR1: Penicillinase-Producing Escherichia coli without Associated Resistance The bacterial and antibiogramidentification is carried out by the VITEK 2 system (bioMérieux) and by the disk diffusion technique.
# [20] = test system: EcR3: ESBL-Producing Escherichia coli; test: Antibiogram by the disk diffusion technique; assay type: cell-based
# Description: The bacterial and antibiogramidentification is carried out by the VITEK 2 system (bioMerieux) and by the disk diffusion technique
# [21] = test system: PaR5: Pseudomonas aeruginosa; test: Antibiogram by the disk diffusion technique; assay type: cell-based
# Description: as §3
# [22] = test system: Escherichia coli, Staphylococcus aureus and Pseudomonas aeruginosa strains; test: Chessboard technique, summary statements over all strains and combinations tested; assay type: cell-based; conditions: strain not stated
# Excerpt: 1.3. Procedure: Chessboard Technique
# The same procedure is followed for the Cx1. […] Thus 64 ATB/Cx1 combinations are obtained.
# The FIC (Fractional Inhibitory Concentration Index) value is defined by the following formula: […]
# When FIC≦0.5, there is a synergistic effect between antibiotic A and antibiotic B.
# When 0.5<FIC≦1, there is an additive effect between antibiotic A and antibiotic B.
# When 1<FIC≦4, there is an indifferent effect between antibiotic A and antibiotic B.
# When FIC>4, there is an antagonistic effect between antibiotic A and antibiotic B.
# For each strain and each antibiotic/Cx1 combination, the experiments were repeated a minimum of 3 times.
# [23] = Cx1 alone (first value of cell)
# [24] = antibiotic alone (second value of cell)
# [25] = Staphylococcus aureus, MRSA, antibiotic alone (second value of cell), read-out: MIC
# [26] = Pseudomonas aeruginosa, antibiotic alone (second value of cell), read-out: MIC
compound,measurement,setting,value
para-guanidinoethylcalix[4]arene [Cx1],MIC,[1]; [23],8 µg/mL
same,MIC,[2]; [23],8 µg/mL
same,MIC,[3]; [23],8 µg/mL
same,MIC mg/L,[3]; [23],8/8 mg/L
same,MIC,[4]; [23],32 µg/mL
same,Initial MICs,[5],2 mg/L
same,Initial MICs (mg/L),[5],2/2 mg/L
same,MIC,[6]; [23],32 µg/mL
same,MIC mg/L,[6]; [23],32/32 mg/L
same,Initial MICs,[7]; [23],4 mg/L and 2 mg/L
same,Initial MICs (mg/L),[7]; [23],4/4 mg/L
same,"Initial MICs (mg/L), Cx1",[7]; Cx1 alone,4 mg/L
same,MIC,[8]; [23],32 µg/mL
same,MIC mg/L,[8]; [23],32/32 mg/L
same,Initial MICs,[9]; [23],8 mg/L
same,Initial MICs (mg/L),[9]; [23],8/8 mg/L
same,"Initial MICs (mg/L), Cx1",[9]; Cx1 alone,8 mg/L
same,MIC,[10]; [23],32 µg/mL
same,"Initial MICs (mg/L), Cx1",[10]; Cx1 alone,32/32 mg/L and 32 mg/L
same,Initial MICs,[11],2 mg/L
same,Initial MICs,[12],2 mg/L
same,Initial MICs (mg/L),[12],2/2 mg/L
CC1(C)S[C@@H]2[C@H](NC(=O)Cc3ccccc3)C(=O)N2[C@H]1C(=O)O [Penicillin G],MIC,[1]; [24],0.5 µg/mL
same,MIC,[2]; [24],4 µg/mL
same,MIC,[3]; [24],0.5 µg/mL
same,CA-SFM Interpretation,[13],Resistant
same,CLSI Interpretation,[13]; Cc CLSI 2011,Resistant
same,EUCAST Interpretation,[13],Resistant
same,MIC mg/L,[13]; Table D1,≧0.5 mg/L
same,Results,[13]; Table D1,Resistant
same,MIC mg/L,[13]; Table D2,≧0.5 mg/L
same,Initial MICs,[9]; [24],1 mg/L
same,CA-SFM Interpretation,[14],Resistant
same,CLSI Interpretation,[14]; Cd CLSI 2011,Resistant
same,EUCAST Interpretation,[14]; Cd EUCAST 2011,Resistant
same,Diameter,[14],26 mm
same,Results,[14],Resistant
same,diameter in mm,[14],26 mm
same,Results,"[15]; Table F1, MIC",Resistant
same,CA-SFM Interpretation,[15]; from MIC,Resistant
same,CLSI Interpretation,"[15]; from MIC, Cc CLSI 2011",Resistant
same,EUCAST Interpretation,[15]; from MIC,Resistant
same,Diameter,[16],28 mm
same,Results,[16],Resistant
C[C@@H]1O[C@@H]1P(=O)(O)O [Fosfomycin],CA-SFM Interpretation,[17]; Cd CA-SFM 2011,Resistant
same,Diameter,[17]; Table G1,13 mm
same,Results,"[17]; Table G1, against Dmin-Dmax",Resistant
same,diameter in mm,[17]; Table G2,13 mm
same,MIC,[1]; [25],2 µg/mL
same,MIC,[3]; [25],16 µg/mL
same,MIC,[18],128 µg/mL
same,MIC,[4]; [26],64 µg/mL
same,CA-SFM Interpretation,[13],Susceptible
same,EUCAST Interpretation,[13],Susceptible
same,Results,[13]; Table D1,Susceptible
same,MIC mg/L,[13]; Table D2,≦8 mg/L
same,MIC,"[13]; Staphylococcus aureus, Table D1, read-out: MIC",≤ 8 µg/mL
same,MIC mg/L (diameter in mm),"[19]; EcR1, cells that print a diameter, Table A2",24 mm
same,CA-SFM Interpretation,"[19]; EcR1, diameter against CA-SFM 2011 limits",Susceptible
same,CLSI Interpretation,"[19]; EcR1, diameter against CLSI 2011 limits",Susceptible
same,Diameter,"[19]; EcR1, disk diffusion, Table A1",24 mm
same,Results,"[19]; EcR1, interpretation of the diameter against Dmin Dmax, Table A1",Susceptible
same,MIC,[6]; [26],> 64 µg/mL
same,MIC,[8]; [26],16 µg/mL
same,MIC,"[9]; Staphylococcus aureus, ATCC29213, antibiotic alone (second value of cell), read-out: Initial MICs",8 µg/mL
same,MIC,"[10]; Pseudomonas aeruginosa, ATCC27853, antibiotic alone (second value of cell), read-out: MIC",16 µg/mL
same,CA-SFM Interpretation,[20]; Cd CA-SFM 2011,Susceptible
same,CLSI Interpretation,[20]; Cd CLSI 2011,Susceptible
same,Diameter,[20]; Table C1,23 mm
same,Results,"[20]; Table C1, against Dmin Dmax",Susceptible
same,diameter in mm,[20]; Table C2,23 mm
same,CA-SFM Interpretation,[14],Susceptible
same,Diameter,[14],26 mm
same,Results,[14],Susceptible
same,diameter in mm,[14],26 mm
same,Diameter,"[21]; PaR5, Table I1",30 mm
same,Results,"[21]; PaR5, Table I1, against Dmin-Dmax",Susceptible
same,diameter in mm,"[21]; disk diffusion inhibition diameter, strain PaR5",30 mm
same,CA-SFM Interpretation,"[21]; disk diffusion, PaR5, versus critical diameter CA-SFM 2011",Susceptible
same,Results,"[15]; Table F1, MIC",Resistant
same,CA-SFM Interpretation,[15]; from MIC,Resistant
same,EUCAST Interpretation,[15]; from MIC,Resistant
same,MIC,[15]; Table F1,≥ 64 µg/mL
same,MIC,"[15]; Table F2, MIC",≥ 64 µg/mL
same,interaction between the antibiotic and Cx1,[22],synergism
same,Diameter,[16],40 mm
same,Results,[16],Susceptible
